Results from ChEMBL document CHEMBL1201862, “PubChem BioAssay data set” (2004).
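Interpolation was linear, between the two tested concentrations surrounding the appropriate level; five concentrations were tested over 48 hours in 96-well plates. At the GI50, growth is halved.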 The source made the active and inactive calls. No stated cut-off is given here; in the data, active = GI50 up to about 1.1 µM and inactive = higher.

What was measured:
Experiment in all cases: DTP human tumour cell line panel, 48 h
[1] = system: COLO 205
[2] = system: DU-145
[3] = system: HCT-15
[4] = system: HOP-92
[5] = system: Hs-578T
[6] = system: M19-MEL
[7] = system: MOLT-4
[8] = system: Malme-3M
[9] = system: NCI-H226
[10] = system: OVCAR-3
[11] = system: OVCAR-4
[12] = system: RXF 393
[13] = system: SF-268
[14] = system: SF-295
[15] = system: SK-MEL-28
[16] = system: SK-MEL-5
[17] = system: SN12C
[18] = system: SNB-19
[19] = system: T47D
[20] = system: UO-31

Row | Compound | GI50 [1] | GI50 [2] | GI50 [3] | GI50 [4] | GI50 [5] | GI50 [6] | GI50 [7] | GI50 [8] | GI50 [9] | GI50 [10] | GI50 [11] | GI50 [12] | GI50 [13] | GI50 [14] | GI50 [15] | GI50 [16] | GI50 [17] | GI50 [18] | GI50 [19] | GI50 [20]
1 | CC(=O)NC1COC(COC(=O)CCCCCCCCCCNC(=O)c2ccc([N+](=O)[O-])c3c(=O)c4ccccc4[nH]c23)C(O)C1OC(C)C(=O)NC(C(=O)NC(CCC(N)=O)C(=O)OCc1ccccc1)C(C)C (configuration not stated) | 18.8 µM (inactive) | 5.79 µM (inactive) | 11.2 µM | 8.05 µM (inactive) | 6.35 µM (inactive) | 3.27 µM (inactive) | 18.6 µM (inactive) | 38.6 µM (inactive) | 44.9 µM (inactive) | 3.57 µM (inactive) | 8.26 µM (inactive) | 4.02 µM (inactive) | 7.36 µM (inactive) | 22 µM (inactive) | 11.9 µM (inactive) | 29.6 µM (inactive) | 32.6 µM (inactive) | 6.03 µM (inactive) | 2.25 µM (inactive) | 8.41 µM (inactive)
2 | Cc1c2ccc3ccccc3c2c[n+]2ccccc12 | 2.82 µM (inactive) | 11.4 µM (inactive) | 59.2 µM | 13.5 µM (inactive) | 2.26 µM (inactive) | 4.48 µM (inactive) | 4.66 µM (inactive) | 1.56 µM (inactive) | 4.67 µM (inactive) | 5.85 µM (inactive) | 12 µM (inactive) | 22.3 µM (inactive) | 1.36 µM (inactive) | 5.89 µM (inactive) | 9.55 µM (inactive) | 6.79 µM (inactive) | 2.94 µM (inactive) | 2.64 µM (inactive) | 1.36 µM (inactive) | 17.5 µM (inactive)
3 | CC(=O)OC(CCC1(C)OC1COc1ccc(CCNC(=O)C=C(C)C)cc1)C(C)(C)OC(C)=O (configuration not stated) | 28.2 µM (inactive) | > 100 µM (inactive) | 24.9 µM | > 100 µM (inactive) | 59.3 µM (inactive) | 19.7 µM (inactive) | 8.93 µM (inactive) | 23.5 µM (inactive) | > 57 µM (inactive) | 16.8 µM (inactive) | 23.7 µM (inactive) | 13.5 µM (inactive) | > 61.2 µM (inactive) | 0.743 µM (active) | 28.2 µM (inactive) | 0.502 µM (active) | > 100 µM (inactive) | > 100 µM (inactive) | 16.6 µM (inactive) | 48.9 µM (inactive)
4 | CC(C)c1ccc(O)c(=O)cc1 [GAMMA-THUJAPLICIN] | 3.74 µM (inactive) | – | 4.59 µM | 5.62 µM (inactive) | – | 6.46 µM (inactive) | 2.79 µM (inactive) | 15.3 µM (inactive) | 3.99 µM (inactive) | 2.48 µM (inactive) | 7.11 µM (inactive) | 22.2 µM (inactive) | 4.06 µM (inactive) | 4.02 µM (inactive) | 12.6 µM (inactive) | 9.35 µM (inactive) | 8.38 µM (inactive) | 7.74 µM (inactive) | – | 3.42 µM (inactive)
